The results in this text go back to patent US20260209242A1, “CAMPTOTHECIN DERIVATIVE, PHARMACEUTICAL COMPOSITION, AND PREPARATION METHOD AND USE THEREFOR” (priority 2022, published 2026).

The target in data set [1] is T1, CYP3A4 (Homo sapiens, UniProt P08684).
T1 construct: from tissue; host or cells: human liver microsomes
The data set is described as follows: Inhibition on human hepatomicrosomes CYP3A4. Type of data set: in vitro ADME.

The test system of data set [2] is SK-BR-3. The experiment in a line: Inhibition of proliferation of cells SK-BR-3 (CelltiterGlo, 72 h). Type of data set: cell-based. The settings on record: Homo sapiens; SK-BR-3 cells, 72 h, CTG; read-out: IC50 (nM), antiproliferative activity on SK-BR-3. The procedure:
(§1) • (1) Cell plating: first, tumor cells SK-BR-3 were cultured using a corresponding culture medium, trypsinized, centrifuged, resuspended for counting, adjusted to an appropriate concentration, and then plated on a 384-well plate. • (2) Co-incubation of the compounds and tumor cells: after the cells adhered to the wall, 100 nL of a diluted bioactive substance (test compound) was added to the cell culture plate using ECHO, the final concentration of DMSO in wells of the cell plate was 0.33%, and the incubation was performed in an incubator at 37° C. with 5% CO2 for 72 h. • (3) After the incubation was complete, 30 μL of a CTG reagent (CelltiterGlo kit) was added to each well. The culture was oscillated on a fast oscillator for 2 min, centrifuged at 1,000 rpm for 1 min, and kept away from light at room temperature for 30 min. The chemiluminescence signal value was read using an Envision instrument. • (4) Cell viability detection: IC50 was calculated using GraphPad Prism 8 software, and the IC50 of the compounds was obtained using the following nonlinear fitting formula (see Table 1):
[formula] • Y: inhibition rate; X: log value of compound concentration-,
(§2) [formula] • high-reading control wells: cells with addition of 100 nL DMSO; and • low-reading control wells: cell-free wells.

Data set [3] addresses T2, CYP1A2 (Homo sapiens, UniProt P05177).
T2 sequence (P05177 1-516): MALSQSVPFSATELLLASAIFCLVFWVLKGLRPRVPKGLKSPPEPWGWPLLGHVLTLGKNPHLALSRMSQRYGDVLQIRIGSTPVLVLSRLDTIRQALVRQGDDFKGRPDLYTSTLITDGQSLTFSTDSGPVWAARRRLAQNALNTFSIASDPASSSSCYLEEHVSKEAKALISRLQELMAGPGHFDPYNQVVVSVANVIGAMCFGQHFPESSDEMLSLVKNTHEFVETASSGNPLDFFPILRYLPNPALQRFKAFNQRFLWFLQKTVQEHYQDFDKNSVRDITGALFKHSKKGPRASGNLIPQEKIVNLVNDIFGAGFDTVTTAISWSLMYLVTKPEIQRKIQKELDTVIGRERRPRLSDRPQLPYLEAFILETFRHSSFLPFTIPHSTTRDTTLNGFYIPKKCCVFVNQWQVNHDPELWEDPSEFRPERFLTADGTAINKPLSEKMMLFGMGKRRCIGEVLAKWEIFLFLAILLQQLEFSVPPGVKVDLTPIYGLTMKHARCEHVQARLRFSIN
The data set is described as follows: Inhibition on human hepatomicrosomes CYP1A2.

Data set [4] is described as follows: Pharmacokinetic test in SD rats. As to conditions: male, Sprague-Dawley (SD), rat, in vivo, iv, 2 mg/kg. The procedure:
After a single intravenous injection (dose: 2 mpk) of the compounds 6-2, 11-2, 17-2, and Dxd into male SD rats (blood collection time points: 0.083 h, 0.25 h, 0.5 h, 1 h, 2 h, 4 h, 8 h, and 24 h after IV administration, totaling 8 blood collection time points), average pharmacokinetic parameters in the plasma are as shown in Table 5: […]

Data set [5] has as its system MDA-MB-468. The experiment in a line: Inhibition of proliferation of cells MDA-MB-468 (CelltiterGlo, 72 h). It counts as cell-based. The settings on record: Homo sapiens; MDA-MB-468 cells, 72 h, CTG; read-out: IC50 (nM), antiproliferative activity on MDA-MB-468. The procedure: as §1, with “MDA-MB-468” for “SK-BR-3”, “[…]” for “5%”, “2):” for “1):”
[formula] • Y: inhibition rate: X: log value of compound concentration;
as §2
On the technique in general: ATP-based viability assays read luminescence as a measure of living cells.

Data set [6] can be described thus: Stability of compounds in human plasma. It counts as in vitro ADME. The settings on record: 5 μmol/L.
Data set [7] deals with NCI-N87. The experiment in a line: Inhibition of proliferation of cells NCI-N87 (CelltiterGlo, 72 h). Type of data set: cell-based. As to conditions: Homo sapiens; NCI-N87 cells, 72 h, CTG; read-out: IC50 (nM), antiproliferative activity on cells NCI-N87. The method, then:
as §1, with “NCI-N87” for “SK-BR-3”, “[…]” for “5%”, “3):” for “1):”
[formula] • Y: inhibition rate, X: log value of compound concentration;
as §2

Like-named read-outs stand apart in the source and are kept apart here.

T1 sequence (P08684 whole entry): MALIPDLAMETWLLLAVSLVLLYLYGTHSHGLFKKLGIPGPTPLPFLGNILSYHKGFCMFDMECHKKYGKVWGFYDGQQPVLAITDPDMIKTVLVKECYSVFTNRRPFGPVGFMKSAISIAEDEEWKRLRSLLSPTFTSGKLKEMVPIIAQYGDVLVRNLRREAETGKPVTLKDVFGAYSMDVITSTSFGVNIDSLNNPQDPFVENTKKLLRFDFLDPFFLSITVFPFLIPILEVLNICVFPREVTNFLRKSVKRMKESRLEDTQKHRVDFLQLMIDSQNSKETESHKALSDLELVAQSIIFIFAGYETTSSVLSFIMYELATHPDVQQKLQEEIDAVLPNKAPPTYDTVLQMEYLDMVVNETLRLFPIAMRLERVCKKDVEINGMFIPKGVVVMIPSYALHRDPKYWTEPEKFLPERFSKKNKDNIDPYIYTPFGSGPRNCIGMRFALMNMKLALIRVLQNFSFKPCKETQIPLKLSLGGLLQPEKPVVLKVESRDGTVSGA

On to `CC[C@@]1(O)C(=O)OCc2c1cc1n(c2=O)Cc2c-1nc1cc(F)c(C)c3c1c2[C@@H](NC(=O)[C@@H](O)C1CC1)CCC3` [Compound 11-2, (S)-2-cyclopropyl-N-((1S,10S)-10-ethyl-6-fluoro-10-hydroxy-5-methyl-11,14-dioxo-1,2,3,4,10,11,14,16-octahydro-13H-cyclohepta[de]pyrano[3′,4′:6,7]indolizino[1,2-b]quinolin-1-yl)-2-hydroxyacetamide], for which the IC50 is greater than 30 µM in data set [1]; greater than 30 µM in data set [1] (read-out: 3A4T (IC50 μM), human hepatomicrosomes, substrate testosterone); 2.4 nM in data set [2]; greater than 30000 nM in data set [3]; 4.5 nM in data set [5]; 2.3 nM in data set [7]. In data set [4], this compound displayed an AUC(0-inf) of 465 ng·h/mL. This compound also had an exposure AUC(0-t) in data set [4] of 460 ng·h/mL. Also, the C0 in data set [4] was 848 ng/mL. For the same compound, the volume of distribution (Vd) in data set [4] amounted to 3.01 L/kg. The compound also yielded a clearance in data set [4] of 72.7 mL/min/kg. Further, the half-life in data set [4] was 37.8 min. In data set [6], the “Residual percentage (%) 4 h” value is listed as 93.40%.

The term IC50 denotes the concentration that gives 50% inhibition. In general, AUC(0-inf) refers to the area under the concentration-time curve extrapolated to infinity. Low values mean less exposure, high ones more exposure. Usually AUC(0-t) stands for exposure summed from dosing to a finite time, without extrapolation to infinity. By Vd is commonly meant the apparent volume that relates the amount in the body to the concentration in plasma or blood. Low values mean confinement near the circulation, high ones extensive tissue distribution. Broadly, the clearance is a measure of how efficiently the substance is removed, as volume per time. High values mean a high capacity for elimination, low ones a low capacity for elimination. What is called half-life is the time in which the quantity being followed falls by half. The low end stands for fast loss, the high end for slow loss.
